In ChEMBL document CHEMBL5661943, “ASAP - In vitro antiviral effect” (2024):
Where “and” joins values, the source holds several entries; their conditions need not be identical. Equal entries are not always repeated.

Key:
Zika virus [1] = assay: EC50 is reported via analysis of immunofluorescence staining. The assay has been performed by Icahn School of Medicine at Mount Sinai.; type: functional, organism-based, Chlorocebus sabaeus, VeroE6/TMPRSS2
dengue virus type 2 [2] = assay: Functional immunofluorescence assay to measure dose dependent changes in antiviral-drug inhibitory efficacy against Dengue virus type 2 Thailand/16681/84 in Vero E6/TMPRSS2 cells (cotreated with P-gp inhibitor, Elacridar). Cells are treated with antiviral candidates that are serially diluted, following infection, cells are fixed. EC50 is reported via analysis of immunofluorescence staining. The assay has been performed by Icahn School of Medicine at Mount Sinai.; type: organism-based, Chlorocebus sabaeus, VeroE6/TMPRSS2; settings: for EC90: Baseline response 0 %, P-gp concentration 2 uM, P-gp inhibitor Elacidar
Zika virus [3] = assay: Functional immunofluorescence assay to measure dose dependent changes in antiviral-drug inhibitory efficacy against Zika virus PRVABC59 in Vero E6/TMPRSS2 cells. Cells are treated with antiviral candidates that are serially diluted, following infection, cells are fixed. EC50 is reported via analysis of immunofluorescence staining. The assay has been performed by Icahn School of Medicine at Mount Sinai.; type: organism-based, Chlorocebus sabaeus; settings: for EC50: VeroE6/TMPRSS2
dengue virus type 2 [4] = assay: Functional immunofluorescence assay to measure dose dependent changes in antiviral-drug inhibitory efficacy against Dengue virus type 2 Thailand/16681/84 in Vero E6/TMPRSS2 cells. Cells are treated with antiviral candidates that are serially diluted, following infection, cells are fixed. EC50 is reported via analysis of immunofluorescence staining. The assay has been performed by Icahn School of Medicine at Mount Sinai.; type: organism-based, Chlorocebus sabaeus
dengue virus type 2 [5] = assay: Functional CPE-based assay to measure dose dependent changes in antiviral-drug inhibitory efficacy against Dengue virus type 2 New Guinea C in Huh7 cells. Cells are treated with antiviral candidates that are serially diluted. EC50 is reported via analysis of MTT/MTS assay as a readout of CPE. The assay has been performed by National Institute of Allergy and Infectious Diseases.; type: organism-based, Homo sapiens; settings: Huh-7
Zika virus [6] = assay: Functional CPE-based assay to measure dose dependent changes in antiviral-drug inhibitory efficacy against Zika virus MR766 in Vero E6 miRFP670 cells. Cells are treated with antiviral candidates that are serially diluted. EC50 is reported via analysis of MTS assay as a readout of CPE. The assay has been performed by KU Leuven.; type: organism-based, Chlorocebus sabaeus, Vero C1008; settings: Zika virus; for EC50: Vero C1008
dengue virus type 2 [7] = assay: Functional assay to measure dose dependent changes in antiviral-drug inhibitory efficacy against Dengue virus type 2 New Guinea C in Vero E6 miRFP670 cells (cotreated with P-gp inhibitor, CP100356). Cells are treated with antiviral candidates that are serially diluted, following infection, cells are fixed. EC50 is reported via analysis of fluorescence intensity using high-content imager. The …; type: organism-based, Chlorocebus sabaeus, Vero C1008; settings: for EC90: Baseline response 0 %, Maximum response 100 %, P-gp concentration 500 nM, P-gp inhibitor CP100356
Zika virus [8] = assay: Functional CPE-based assay to measure dose dependent changes in antiviral-drug inhibitory efficacy against Zika virus MR766 in Vero E6 miRFP670 cells (cotreated with P-gp inhibitor, CP100356). Cells are treated with antiviral candidates that are serially diluted. EC50 is reported via analysis of MTS assay as a readout of CPE. The assay has been performed by KU Leuven.; type: organism-based, Chlorocebus sabaeus, Vero C1008; settings: Zika virus, Vero C1008

NCc1ccc(-c2ncc(OCC3CCNCC3)nc2-c2ccc(-c3ccoc3)cc2)cc1
EC50 (Zika virus [1]; Zika virus, VeroE6/TMPRSS2): 0.111 µM
EC90 (Zika virus [1]; Zika virus, VeroE6/TMPRSS2): 16.5 µM
EC50 (dengue virus type 2 [2]; Dengue virus, VeroE6/TMPRSS2): 1000 nM
EC90 (dengue virus type 2 [2]; Dengue virus, VeroE6/TMPRSS2, Hill slope -0.497, Maximum measured 90.326 %, Maximum response 100 %, Minimum measured 29.879 %, R squared 0.819): > 16.7 µM
EC50 (Zika virus [3]): > 50 µM
EC90 (Zika virus [3]; VeroE6/TMPRSS2, Maximum measured 394.841 %, Minimum measured 61.013 %): > 50 µM
EC50 (dengue virus type 2 [4]; VeroE6/TMPRSS2): 16100 nM
EC90 (dengue virus type 2 [4]; VeroE6/TMPRSS2, Baseline response -26.43 %, Hill slope -19.353, Maximum measured 64.866 %, Maximum response 59.51 %, Minimum measured 1.549 %, R squared 0.583): > 16.7 µM
EC50 (dengue virus type 2 [5]): > 5.5 µM

CCCC[C@H](NC(C)=O)C(=O)N[C@H](C(=O)NCc1ccc(C(N)=O)cc1)c1ccc(OCc2ccccc2)cc1
EC50 (Zika virus [1]; Zika virus, VeroE6/TMPRSS2): > 50 µM
EC90 (Zika virus [1]; Zika virus, VeroE6/TMPRSS2, Maximum measured 173.346 %, Minimum measured 74.645 %, P-gp concentration 2 uM, P-gp inhibitor Elacidar): > 50 µM
EC90 (Zika virus [1]; Zika virus, VeroE6/TMPRSS2, Baseline response 0 %, Hill slope 0.304, Maximum measured 106.185 %, Maximum response 100 %, Minimum measured 70.235 %, P-gp concentration 2 uM, R squared 0.184, P-gp inhibitor Elacidar): > 50 µM
EC90 (dengue virus type 2 [2]; Hill slope -0.583, Maximum measured 72.286 %, Maximum response 50 %, Minimum measured 22.28 %, R squared 0.087): > 50 µM
EC90 (dengue virus type 2 [2]; Dengue virus, VeroE6/TMPRSS2, Hill slope -0.364, Maximum measured 95.574 %, Maximum response 100 %, Minimum measured 8.045 %, R squared 0.69): > 50 µM
EC50 (dengue virus type 2 [5]): 5.3 µM

O=C(Nc1ccc2c(c1)B(O)OC2)c1cccc(OCc2c(Cl)cccc2Cl)c1
EC50 (Zika virus [3]): 1.09 µM
EC90 (Zika virus [3]; VeroE6/TMPRSS2, Baseline response 0 %, Hill slope -0.477, Maximum measured 91.001 %, Maximum response 100 %, Minimum measured 4.308 %, R squared 0.689): > 16.7 µM
EC50 (dengue virus type 2 [4]; VeroE6/TMPRSS2): 155 nM
EC90 (dengue virus type 2 [4]; VeroE6/TMPRSS2): 0.735 µM
EC50 (dengue virus type 2 [5]): > 1.9 µM

CC1(C)Cc2sc(NC(=O)Cc3ccc(S(N)(=O)=O)cc3)c(C#N)c2CN1CC1CCCCC1
EC50 (Zika virus [6]): > 50 µM
EC90 (Zika virus [6]; Vero C1008, Maximum measured -0.002 %, Minimum measured -8.758 %): > 50 µM
EC50 (dengue virus type 2 [7]; Dengue virus, Vero C1008): < 391 nM
EC90 (dengue virus type 2 [7]; Dengue virus, Vero C1008, Hill slope -4.912, Maximum measured 6.91 %, Minimum measured 0.005 %, R squared 0.81): < 391 nM
EC50 (dengue virus type 2 [5]): < 0.01 µM

O=C(O)c1cc(Oc2ccc(F)cc2)c(F)cc1NS(=O)(=O)c1ccc(Oc2ccccc2Cl)cc1
EC90 (Zika virus [1]; Baseline response 0 %, Hill slope -0.477, Maximum measured 92.293 %, Maximum response 50 %, Minimum measured 32.859 %, P-gp concentration 2 uM, R squared 0.014, P-gp inhibitor Elacidar): > 16.7 µM
EC90 (Zika virus [1]; Zika virus, VeroE6/TMPRSS2, Baseline response 0 %, Hill slope -0.324, Maximum measured 79.955 %, Maximum response 100 %, Minimum measured 28.499 %, P-gp concentration 2 uM, R squared 0.691, P-gp inhibitor Elacidar): > 16.7 µM
EC50 (dengue virus type 2 [2]; Dengue virus, VeroE6/TMPRSS2): > 16700 nM
EC90 (dengue virus type 2 [2]; Dengue virus, VeroE6/TMPRSS2, Hill slope -0.235, Maximum measured 89.319 %, Maximum response 100 %, Minimum measured 56.356 %, R squared 0.164): > 16.7 µM
EC50 (dengue virus type 2 [5]): > 20 µM

c1cc(C2CCN(Cc3c[nH]c4ccccc34)CC2)c2ccncc2c1
EC90 (Zika virus [1]; Baseline response 0 %, Hill slope -0.578, Maximum measured 88.327 %, Maximum response 100 %, Minimum measured 9.758 %, P-gp concentration 2 uM, R squared 0.671, P-gp inhibitor Elacidar): > 50 µM
EC90 (Zika virus [1]; Zika virus, VeroE6/TMPRSS2): 25.3 µM
EC90 (dengue virus type 2 [2]; EC90 CI (lower) 0 uM, EC90 CI (upper) 0.011 uM, Hill slope -0.624, Maximum measured 68.2 %, Maximum response 100 %, Minimum measured 5.474 %, R squared 0.683): 1.58 µM
EC90 (dengue virus type 2 [2]; EC90 CI (lower) 0 uM, EC90 CI (upper) […] uM, Hill slope -0.4, Maximum measured 23.467 %, Maximum response 30 %, Minimum measured 3.547 %, R squared 0.817): 16.1 µM
EC50 (dengue virus type 2 [2]; veroe6/tmprss2): 47 nM and < 23 nM
EC50 (Zika virus [3]): 7.01 µM
EC90 (Zika virus [3]; VeroE6/TMPRSS2, Baseline response 0 %, Hill slope -0.669, Maximum measured 111.623 %, Maximum response 100 %, Minimum measured 18.809 %, R squared 0.805): > 50 µM
EC50 (dengue virus type 2 [4]; VeroE6/TMPRSS2): 336 nM
EC90 (dengue virus type 2 [4]; VeroE6/TMPRSS2, Baseline response 0 %, EC90 CI (lower) 0 uM, EC90 CI (upper) 0.803 uM, Hill slope -0.593, Maximum measured 141.896 %, Maximum response 100 %, Minimum measured 11.317 %, R squared 0.319): 13.6 µM
EC50 (dengue virus type 2 [7]; Dengue virus, Vero C1008): 2690 nM
EC90 (dengue virus type 2 [7]; Dengue virus, Vero C1008, EC90 CI (lower) 0.253 uM, EC90 CI (upper) 1.159 uM, Hill slope -1.373, Maximum measured 83.881 %, Minimum measured 4.274 %, R squared 0.884): 13300 nM
EC50 (dengue virus type 2 [5]): 27 µM

O=C(NCC(F)(F)F)c1cc(Cl)c(F)cc1NS(=O)(=O)c1ccc(Oc2ccccc2Cl)cc1
EC50 (Zika virus [6]): > 50 µM
EC90 (Zika virus [6]; Vero C1008, Maximum measured -0.734 %, Minimum measured -10.955 %): > 50 µM
EC50 (dengue virus type 2 [7]; Dengue virus, Vero C1008): 3790 nM
EC90 (dengue virus type 2 [7]; Dengue virus, Vero C1008, EC90 CI (lower) 2.885 uM, EC90 CI (upper) 3.374 uM, Hill slope -11.236, Maximum measured 107.639 %, Minimum measured 0.022 %, R squared 0.991): 4610 nM
EC50 (dengue virus type 2 [5]): > 1.9 µM

COc1cc(N[C@@H](C(=O)N2CCc3ccc(OC(F)(F)F)cc32)c2ccc(Cl)cc2)cc(OCCCC(=O)O)c1
EC50 (Zika virus [1]; Zika virus, VeroE6/TMPRSS2): > 10 µM
EC90 (Zika virus [1]; Zika virus, VeroE6/TMPRSS2, Maximum measured 96.7 %, Minimum measured 47.971 %, P-gp concentration 2 uM, P-gp inhibitor Elacidar): > 10 µM
EC90 (Zika virus [1]; Zika virus, VeroE6/TMPRSS2, Maximum measured 158.114 %, Minimum measured 73.503 %, P-gp concentration 2 uM, P-gp inhibitor Elacidar): > 10 µM
EC90 (Zika virus [1]; Zika virus, VeroE6/TMPRSS2, Baseline response 0 %, Hill slope -19.172, Maximum measured 90.933 %, Maximum response 60 %, Minimum measured 7.507 %, P-gp concentration 2 uM, R squared 0.342, P-gp inhibitor Elacidar): > 16.7 µM
EC50 (Zika virus [1]; veroe6/tmprss2): 15.1 µM
EC90 (dengue virus type 2 [2]; Hill slope 0.035, Maximum measured 8.614 %, Maximum response 100 %, Minimum measured 2.814 %, R squared 0.022): < 0.023 µM
EC90 (dengue virus type 2 [2]; Hill slope -0.067, Maximum measured 2.038 %, Maximum response 100 %, Minimum measured 0.482 %, R squared 0.032): < 0.005 µM
EC90 (dengue virus type 2 [2]; Hill slope -0.192, Maximum measured 3.988 %, Maximum response 100 %, Minimum measured 0.35 %, R squared 0.503): < 0.005 µM
EC50 (dengue virus type 2 [2]; veroe6/tmprss2): < 5 nM
EC50 (Zika virus [6]): > 6.25 µM
EC90 (Zika virus [6]; Vero C1008, Baseline response 0 %, Hill slope 1.919, Maximum measured 39.533 %, Maximum response 100 %, Minimum measured 0.481 %, R squared 0.987): > 6.25 µM
EC90 (Zika virus [6]; Vero C1008, Baseline response 0 %, Hill slope 2.194, Maximum measured 37.889 %, Maximum response 100 %, Minimum measured -0.884 %, R squared 0.976): > 6.25 µM
EC90 (Zika virus [6]; Vero C1008, Baseline response 0 %, Hill slope 2.262, Maximum measured 0.1 %, Maximum response 100 %, Minimum measured -2.404 %, R squared 0.714): > 6.25 µM
EC50 (Zika virus [8]): > 6.25 µM
EC90 (Zika virus [8]; Baseline response 0 %, Hill slope 1.255, Maximum measured 36.243 %, Maximum response 100 %, Minimum measured 3.426 %, P-gp concentration 500 nM, R squared 0.925, P-gp inhibitor CP100356): > 6.25 µM
EC90 (dengue virus type 2 [7]; EC90 CI (lower) 26.978 uM, EC90 CI (upper) 1103.75 uM, Hill slope 1.671, Maximum measured 3.58 %, Minimum measured 0.058 %, R squared 0.662): < 391 nM
EC90 (dengue virus type 2 [7]; Hill slope 0.149, Maximum measured 0.277 %, Minimum measured 0.08 %, R squared 0.031): < 391 nM
EC90 (dengue virus type 2 [7]; Hill slope 0.294, Maximum measured 5.954 %, Minimum measured 0.022 %, R squared 0.035): < 391 nM
EC50 (dengue virus type 2 [7]; Dengue virus, Vero C1008): < 391 nM
EC90 (dengue virus type 2 [7]; Dengue virus, Vero C1008, Hill slope -0.103, Maximum measured 0.223 %, Minimum measured 0.035 %, R squared 0.026): < 391 nM
EC50 (dengue virus type 2 [5]): < 0.01 µM
